Laboratory results reported in US20030013660A1, “Dioxolane analogs for improved inter-cellular delivery” (Shire BioChem Inc., priority 2000, published 2003).

Key:
CEM/dCK- [1] = assay: MTT or WST-1 assay at 72 hr (24 hr drug exposure, wash, 48 hr); format: cell-based
Description: Exposition of 24hr to drug, washed, and incubated for another 48hr (total of 72hr assay)

CEM/dCK- [2] = assay: 3H-TdR incorporation at 72 hr (24 hr drug exposure, wash, 48 hr); format: cell-based; details: for IC50: Homo sapiens, CCRF-CEM, read-out: IC50 in μM (3H-TdR incorporation at 72 hr) CEM/dCK- 24 h, CCRF-CEM deoxycytidine kinase-deficient, 24 h drug exposure, 72 hr assay; for Factor* (Resistance Factor = Ratio of dCK- on Wild-type CCRF-CEM): ratio of IC50 CEM/dCK- to IC50 CCRF-CEM
Description: (§1) Exposition of 24 hr to drug, wash, incubated for another 48 hr (total of 72 hr assay)
(§2) (3H-Thymidine Incorporation Assay)

MCF-7 = assay: as above; format: cell-based, Human; details: Homo sapiens, MCF7, read-out: IC50 in μM (3H-TdR incorporation at 72 hr) MCF-7 24 h, MCF-7 Human Breast Carcinoma, 72 hr assay
Description: as §1, §2

H-460 = assay: as above; format: cell-based, Human; details: Homo sapiens, NCI-H460, read-out: IC50 in μM (3H-TdR incorporation at 72 hr) H-460 24 h, H-460 Human Lung Carcinoma, 72 hr assay
Description: as §1, §2

SF-268 = assay: as above; format: cell-based, Human; details: Homo sapiens, SF-268, read-out: IC50 in μM (3H-TdR incorporation at 72 hr) SF-268 24 h, SF-268 Human Central Nervous System Tumor; 24 h drug exposure, 72 hr assay
Description: as §1, §2

CCRF-CEM = assay: as above; format: cell-based; details: Homo sapiens, CCRF-CEM, read-out: IC50 in μM (3H-TdR incorporation at 72 hr) CCRF-CEM 24 h, CCRF-CEM T-cell Leukemia, 72 hr assay
Description: as §1, §2

[3] = read-out: IC50 CEM/dCK- 24 h, MMT or WST-1 at 72 hr, 24 h exposure, single experiment
[4] = read-out: IC50 CEM/dCK- 24 h; MMT or WST-1 at 72 hr, 24 h exposure, single experiment

Row | Structure (SMILES) | IC50 (CEM/dCK- [1]; [3]) | IC50 (CEM/dCK- [1]; [4]) | IC50 (CEM/dCK- [2]) | IC50 (MCF-7) | IC50 (H-460) | IC50 (SF-268) | IC50 (CCRF-CEM) | Factor* (Resistance Factor = Ratio of dCK- on Wild-type CCRF-CEM) (CEM/dCK- [2])
1 | CC(C)(C)c1cc(C(=O)OC[C@H]2OC[C@@H](n3ccc(N)nc3=O)O2)cc(C(C)(C)C)c1 [Compound 186, 3,5-DI-TERT-BUTYL- BENZOIC ACID 4-(4- AMINO-2-OXO-2H- PYRIMIDIN-1-YL)- [1,3]DIOXOLAN-2- YLMETHYL ESTER] | 26 µM | 14 µM | > 100 µM |  |  |  |  | 
2 | CC(C)Cc1ccc([C@H](C)C(=O)OC[C@H]2OC[C@@H](n3ccc(N)nc3=O)O2)cc1 [Compound 243, 2-(4-ISOBUTYL-PHENYL)- PROPIONIC ACID 4-(4- AMINO-2-OXO-2H- PYRIMIDIN-1-YL)- [1,3]DIOXOLAN-2-YL METHYL ESTER] |  |  | 72 µM | 0.0005 µM | 0.0011 µM | 0.32 µM | 0.027 µM | 2,667
3 | CC(CCCCCCc1ccccc1)C(=O)OC[C@H]1OC[C@@H](n2ccc(N)nc2=O)O1 (some centres unmarked) [Compound 245, 2-METHYL-8-PHENYL- OCTANOIC ACID 4-(4- AMINO-2-OXO-2H- PYRIMIDIN-1-YL)- [1,3]DIOXOLAN-2-YL METHYL ESTER] |  |  | 0.68 µM | < 0.0001 µM | < 0.0001 µM | < 0.0001 µM | < 0.0001 µM | >6800
4 | Nc1ccn([C@@H]2CO[C@H](COC(=O)N(c3ccccc3)c3ccccc3)O2)c(=O)n1 [Compound 246, DIPHENYL-CARBAMIC ACID 4-(4-AMINO-2-OXO-2H- PYRIMIDIN-1-YL)- [1,3]DIOXOLAN-2-YL METHYL ESTER] |  |  | > 100 µM | 1.4 µM | 47 µM | 28 µM | 25 µM | >4
5 | CC(C)C(C(=O)Nc1ccn([C@@H]2CO[C@H](CO)O2)c(=O)n1)c1ccccc1 (some centres unmarked) [Compound 249, #N!-[1-(2- HYDROXYMETHYL- [1,3]DIOXOLAN-4-YL)-2- OXO-1,2-DIHYDRO- PYRIMIDIN-4-YL]-3- METHYL-2-PHENYL- BUTYRAMIDE] |  |  | > 100 µM | 0.78 µM | 8.6 µM | 8.4 µM | 3.9 µM | >25
6 | CCCCCc1ccc(OC(=O)Nc2ccn([C@@H]3CO[C@H](CO)O3)c(=O)n2)cc1 [Compound 250, [1-(2-HYDROXYMETHYL- [1,3]DIOXOLAN-4-YL)-2- OXO-1,2-DIHYDRO- […]-4-YL]- CARBAMIC ACID 4-PENTYL- PHENYL ESTER] |  |  | 31 µM | 0.16 µM | 0.17 µM | 0.17 µM | 0.063 µM | 492
7 | CC(C)C[C@H](NC(=O)OCc1ccccc1)C(=O)Nc1ccn([C@@H]2CO[C@H](CO)O2)c(=O)n1 [Compound 254, {1-[1-(2-HYDROXYMETHYL- [1,3]DIOXOLAN-4-YL)-2- OXO-1,2-DIHYDRO- PYRIMIDIN-4-YL CARBAMOYL]-3-METHYL- BUTYL}-CARBAMIC ACID BENZYL ESTER] |  |  | 31 µM | 0.18 µM | 0.17 µM | 0.29 µM | 0.098 µM | 316
8 | CC(C)(C)C(CCCCCCc1ccccc1)C(=O)OC[C@H]1OC[C@@H](n2ccc(N)nc2=O)O1 (some centres unmarked) [Compound 256, 2-tert-Butyl-8-phenyl-octanoic acid 4-(4-amino-2-oxo-2H-pyrimidin-1-yl)-[1,3]dioxolan-2-yl methyl ester] |  |  | 20 µM | 5.1 µM | 4.6 µM | 14 µM | 5.3 µM | 4
9 | CCC(CCCCCCc1ccccc1)C(=O)OC[C@H]1OC[C@@H](n2ccc(N)nc2=O)O1 (some centres unmarked) [Compound 266, 2-ETHYL-8-PHENYL- OCTANOIC ACID 4-(4- AMINO-2-OXO-2H- PYRIMIDIN-1-YL)- [1,3]DIOXOLAN-2- YLMETHYL ESTER] | 21 µM | 26 µM |  |  |  |  |  | 
